Source: US5849259A, “3-,8-substituted deuteroporphyrin derivatives, pharmaceutical agents containing the latter and process for their production” (priority 1992, dated 1998)

What was measured:
[1] = Relaxivity; format: physicochemical
[2] = Tissue relaxation times T1 and T2 (Bruker minispec pc 120) after 0.1 mmol/kg i.v.; format: in vivo, nude mice (Balb/c nu/nu)
Experimental: e) 9 nude mice (Balb/c nu/nu) with subcutaneously implanted colon cancers (HT29 and WiDr) were each administered by i.v. 0.1 mmol/kg of the deuteroporphyrin derivative of the compound according to example 1c (10 mmol/l dissolved in bidistilled water, pH 7.2, 37° C.). After 0.5, 3 and 24 hours, the animals were killed and dissected. The tissue concentrations were determined after corresponding working-up (HNO3 conc.) by ICP-AES and calculated for % of the administered dose per gram of tissue net weight. Moreover, tissue relaxation times T1 and T2 were determined (Bruker minispec pc 120).
f) 9 nude mice (Balb/c nu/nu) with subcutaneously implanted carcinomas (HT29, WiDr and MATLu) were each administered by i.v. 0.1 mmol/kg of the deuteroporphyrin derivative of example 1c (10 mmol/L dissolved in bidistilled water, pH 7.2, 37° C.). After 2 hours, the animals were killed and dissected. The tissue concentrations were determined after corresponding working-up (HNO3 conc.) by ICP-AES and calculated for % of the administered dose per gram of tissue net weight. Moreover, tissue relaxation times T1 and T2 were determined (Bruker minispec pc 120). To determine the blank readings, control animals were correspondingly studied without KM-administration.

[3] = tested on: HT29 colon cancer; experiment: Signal intensity change in tissues of tumor-bearing (HT29 colon cancer) nude mice, Bruker Biospec 2.35 Tesla, MSSE; format: in vivo, nude mice (Balb/c nu/nu); settings: 0.05 mmol/kg i.v.; for enhancement, HT29 / enhancement, Kidneys / enhancement, Liver / enhancement, Muscle: time 0 = 100
Experimental: On a Bruker Biospec nuclear spin tomograph (2.35 Tesla), the al intensity change in various tissues of tumor-bearing (HT29 colon cancer) nude mice (Balb/c nu/nu) was studied after i.v administration of 0.05 mmol/kg of the compound according to example 1c (10 mmol/l, pH 7.2; 37° C. in bidistilled water). The measurement takes place with a multi slice single echo sequence (MSSE). Imaging parameters: TR: 400 ms, TE: 30 ms, layer thickness: 4 mm, number of averages: 4/slice, matrix 256^2. […]

N,N'-Bis[9-carboxylato-2,5,8-tris(carboxylatomethyl)-2,5,8-triazanonyl-carbamoyl]-mesoporphyrin-IX-13,17-diamide, digadolinium complex, disodium salt [Example 1c]
relaxivity [1]: 17.86 1 mmol^-1 s^-1 | tissue relaxation time T1, HT29 tumor ([2]; 0.5 hour): 410 ± 30 ms | tissue relaxation time T1, WiDr tumor ([2]; 0.5 hour): 320 ± 40 ms | tissue relaxation time T1, kidneys ([2]; 0.5 hour): 160 ± 10 ms | tissue relaxation time T1, liver ([2]; 0.5 hour): 220 ± 20 ms | tissue relaxation time T1, muscle ([2]; 0.5 hour): 500 ± 40 ms | tissue relaxation time T2, HT29 tumor ([2]; 0.5 hour): 81 ± 4 ms | tissue relaxation time T2, WiDr tumor ([2]; 0.5 hour): 67 ± 7 ms | tissue relaxation time T2, kidneys ([2]; 0.5 hour): 42 ± 1 ms | tissue relaxation time T2, liver ([2]; 0.5 hour): 34 ± 3 ms | tissue relaxation time T2, muscle ([2]; 0.5 hour): 32 ± 1 ms | effect on tissue relaxation times in prostate cancer (MATLu) versus colon cancers ([2]; 2 hours): greater than in the colon cancers | tissue relaxation time T1, HT29 tumor ([2]; 2 hours): 375 ± 32 ms | tissue relaxation time T1, MATLu ([2]; 2 hours): 361 ± 65 ms | tissue relaxation time T1, WiDr tumor ([2]; 2 hours): 358 ± 70 ms | tissue relaxation time T2, HT29 tumor ([2]; 2 hours): 94 ± 7 ms | tissue relaxation time T2, MATLu ([2]; 2 hours): 102 ± 10 ms | tissue relaxation time T2, WiDr tumor ([2]; 2 hours): 110 ± 9 ms | tissue relaxation time T1, HT29 tumor ([2]; 3 hours): 440 ± 70 ms | tissue relaxation time T1, WiDr tumor ([2]; 3 hours): 430 ± 50 ms | tissue relaxation time T1, kidneys ([2]; 3 hours): 230 ± 30 ms | tissue relaxation time T1, liver ([2]; 3 hours): 220 ± 30 ms | tissue relaxation time T1, muscle ([2]; 3 hours): 560 ± 40 ms | tissue relaxation time T2, HT29 tumor ([2]; 3 hours): 72 ± 8 ms | tissue relaxation time T2, WiDr tumor ([2]; 3 hours): 72 ± 7 ms | tissue relaxation time T2, kidneys ([2]; 3 hours): 47 ± 5 ms | tissue relaxation time T2, liver ([2]; 3 hours): 42 ± 2 ms | tissue relaxation time T2, muscle ([2]; 3 hours): 36 ± 3 ms | tissue relaxation time T1, HT29 tumor ([2]; 24 hours): 540 ± 20 ms | tissue relaxation time T1, WiDr tumor ([2]; 24 hours): 640 ± 10 ms | tissue relaxation time T1, kidneys ([2]; 24 hours): 240 ± 20 ms | tissue relaxation time T1, liver ([2]; 24 hours): 260 ± 10 ms | tissue relaxation time T1, muscle ([2]; 24 hours): 660 ± 10 ms | tissue relaxation time T2, HT29 tumor ([2]; 24 hours): 83 ± 7 ms | tissue relaxation time T2, WiDr tumor ([2]; 24 hours): 85 ± 2 ms | tissue relaxation time T2, kidneys ([2]; 24 hours): 54 ± 10 ms | tissue relaxation time T2, liver ([2]; 24 hours): 48 ± 7 ms | tissue relaxation time T2, muscle ([2]; 24 hours): 31 ± 1 ms | shortening of T1 tissue relaxation times, all three tumors ([2]; HT29, WiDr, MATLu, 2 hours): 2-3 factor | shortening of T1 tissue relaxation times, both tumors ([2]; HT29 and WiDr): 2-3 factor | tissue relaxation time T1, kidneys ([2]; HT29 mice, 2 hours): 150 ± 12 ms | tissue relaxation time T1, liver ([2]; HT29 mice, 2 hours): 174 ± 8 ms | tissue relaxation time T1, muscle ([2]; HT29 mice, 2 hours): 489 ± 57 ms | tissue relaxation time T2, kidneys ([2]; HT29 mice, 2 hours): 59 ± 3 ms | tissue relaxation time T2, liver ([2]; HT29 mice, 2 hours): 49 ± 2 ms | tissue relaxation time T2, muscle ([2]; HT29 mice, 2 hours): 56 ± 2 ms | tissue relaxation time T1, kidneys ([2]; MATLu mice, 2 hours): 171 ± 20 ms | tissue relaxation time T1, liver ([2]; MATLu mice, 2 hours): 191 ± 10 ms | tissue relaxation time T1, muscle ([2]; MATLu mice, 2 hours): 506 ± 10 ms | tissue relaxation time T2, kidneys ([2]; MATLu mice, 2 hours): 60 ± 1 ms | tissue relaxation time T2, liver ([2]; MATLu mice, 2 hours): 51 ± 2 ms | tissue relaxation time T2, muscle ([2]; MATLu mice, 2 hours): 54 ± 2 ms | tissue relaxation time T1, kidneys ([2]; WiDr mice, 2 hours): 159 ± 30 ms | tissue relaxation time T1, liver ([2]; WiDr mice, 2 hours): 180 ± 30 ms | tissue relaxation time T1, muscle ([2]; WiDr mice, 2 hours): 508 ± 40 ms | tissue relaxation time T2, kidneys ([2]; WiDr mice, 2 hours): 64 ± 2 ms | tissue relaxation time T2, liver ([2]; WiDr mice, 2 hours): 53 ± 5 ms | tissue relaxation time T2, muscle ([2]; WiDr mice, 2 hours): 62 ± 3 ms | signal intensity change, tumor and muscle [3]: only a slight change | enhancement, HT29 ([3]; 5 min): 116 ± 19 | enhancement, Kidneys ([3]; 5 min): 185 ± 34 | enhancement, Liver ([3]; 5 min): 122 ± 31 | enhancement, Muscle ([3]; 5 min): 119 ± 8 | signal intensity change, liver tissue ([3]; 5 minutes p.i.): marked signal intensity increase | enhancement, HT29 ([3]; 60 min): 128 ± 21 | enhancement, Kidneys ([3]; 60 min): 240 ± 26 | enhancement, Liver ([3]; 60 min): 164 ± 22 | enhancement, Muscle ([3]; 60 min): 129 ± 7 | enhancement, HT29 ([3]; 90 min): 148 ± 22 | enhancement, Kidneys ([3]; 90 min): 248 ± 18 | enhancement, Liver ([3]; 90 min): 202 ± 37 | enhancement, Muscle ([3]; 90 min): 143 ± 21 | enhancement, HT29 ([3]; 120 min): 155 ± 30 | enhancement, Kidneys ([3]; 120 min): 246 ± 6 | enhancement, Liver ([3]; 120 min): 194 ± 33 | enhancement, Muscle ([3]; 120 min): 147 ± 17 | enhancement, HT29 ([3]; 150 min): 167 ± 29 | enhancement, Kidneys ([3]; 150 min): 225 ± 12 | enhancement, Liver ([3]; 150 min): 197 ± 17 | enhancement, Muscle ([3]; 150 min): 146 ± 8 | enhancement, HT29 ([3]; 180 min): 161 ± 22 | enhancement, Kidneys ([3]; 180 min): 212 ± 16 | enhancement, Liver ([3]; 180 min): 212 ± 9 | enhancement, Muscle ([3]; 180 min): 157 ± 8
